Our source for the EC50 values is patent US10682319B2, “Necrosis inhibitors” (National Institute of Biological Sciences, Beijing, priority 2014, dated 2020).

As a reminder, the EC50 is the midpoint of the concentration-response curve.

One assay relates to HT-29 cells. The assay is described as follows: Necrosis assay (TNF-α/Smac mimetic/z-VAD induced necrosis, cell viability by ATP level). The settings on record: HT-29, TNF-α + Smac mimetic + z-VAD, 24 hrs, ATP level; values given as ranges in nM; read-out: EC50 (inhibition of necrosis in HT-29 cells). The assay is classed as cell-based. Here is the method:
HT-29 cells were cultured in McCoy's 5 A culture medium (Invitrogen). On day one, HT-29 cells were plated in 96-well assay plates at density of 2,500-3,500 cells per well. On day two, necrosis were induced by adding 20 ng/ml TNF-α (T), 100 nM Smac mimetic (S), and […] z-VAD (Z). At the same time, […] compound from a chemical library of ˜200,000 compounds was delivered into each well. After 24 hrs treatment, cell viability was determined by measuring ATP level using the CellTiter-Glo Luminescent Cell Viability Assay kit. A CellTiter-Glo Assay (Promega) was performed according to the manufacturer's instructions Luminescence was recorded with a PerkinElmer EnSpire Multimode Plate Reader. Survived cells were normalized to those cells treated with DMSO. Nec-1 was used as a positive control for screening necrosis inhibitors. Data are represented as mean±standard deviation of duplicates
Dose-dependent inhibition of necrosis by the compounds in HT-29 cells were determined by measuring ATP levels as described above.
For the compound `CCC(C)(C)C(=O)N(C)Cc1cccs1` [Compound 40, N,2,2-trimethyl-N-(thiophen-2-ylmethyl)butanamide], the EC50 was in the range of 1 to 1000 nM.
In the case of `CN(Cc1cc(F)cc(F)c1F)C(=O)C(C)(C)C(C)(F)F` [Compound S5, 3,3-difluoro-N,2,2-trimethyl-N-(2,3,5-trifluorobenzyl)butanamide], the EC50 lay within 1 to 1000 nM.
Still for that read-out and setting: in the case of `CCC(C)(C)C(=O)N(C)Cc1cc(F)ccc1F` [Compound 25, N-(2,5-difluorobenzyl)-N,2,2-trimethylbutanamide] it was 1 to 1000 nM; in that of `CN(Cc1cc(F)cc(F)c1F)C(=O)C1(C(F)(F)F)CCC1` [Compound 84, N-methyl-N-(2,3,5-trifluorobenzyl)-1-(trifluoromethyl)cyclobutanecarboxamide], 1 to 1000 nM; in that of `CCC(C)(C)C(=O)N(C)Cc1cccc(F)c1F` [Compound S8, N-(2,3-difluorobenzyl)-N,2,2-trimethylbutanamide], 1 to 1000 nM.
On to `CCC(C)(C)C(=O)N(C)Cc1ccc(F)c(F)c1F` [Compound 49, N,2,2-trimethyl-N-(2,3,4-trifluorobenzyl)butanamide], for which the EC50 was in the range of 1 to 1000 nM.

Staying with this assay, now noted: Homo sapiens, HT-29, 24 h, HT-29, TNF-α + Smac mimetic + z-VAD, 24 hrs, ATP level; values given as ranges in uM; read-out: EC50 (inhibition of necrosis in HT-29 cells).
In the case of `CCC(C)(C)C(=O)N(C)C(CO)c1ccccc1` (stereo not shown) [Compound 111, N-(2-hydroxy-1-phenylethyl)-N,2,2-trimethylbutanamide], the concentration giving a half-maximal response (EC50) was 1000 to 100000 nM.
Still for that read-out and setting: in the case of `CCC(C)(C)C(=O)N(Cc1ccccc1)OC` [Compound 151] it was 1000 to 100000 nM; in that of `CCC(C)(C)C(=O)N(O)Cc1cccn1C` [Compound 143], 1000 to 100000 nM.
On the same count and under the same terms, in the case of `CCC(C)(C)C(=O)N[C@@H](C(=O)NC)c1ccccc1` [Compound 122, (R)-2,2-dimethyl-N-(2-(methylamino)-2-oxo-1-phenylethyl)butanamide] it was 1000 to 100000 nM; in that of `CN(Cc1ccccc1F)C(=O)C1CCCCC1` [Compound 60, N-(2-fluorobenzyl)-N-methylcyclohexanecarboxamide], 1000 to 10000 nM; in that of `CC1CCCN(C(=O)N(C)Cc2cc(F)cc(F)c2F)C1` (stereo not shown) [Compound 118, N,3-dimethyl-N-(2,3,5-trifluorobenzyl)piperidine-1-carboxamide], 1000 to 100000 nM.
Still for that read-out and setting: then `CON(Cc1ccc(F)c(F)c1)C(=O)C(C)(C)C(C)(F)F` [Compound S17], with 1000 to 100000 nM.
Consider `CC(F)(F)C(C)(C)C(=O)N(O)Cc1cc(F)c(F)cc1F` [Compound S12], for which the EC50 fell in the range of 1000 to 100000 nM.
For `CCC(C)(C)C(=O)N[C@@H](CO)c1ccccc1` [Compound 109, (R)—N-(2-hydroxy-1-phenylethyl)-2,2-dimethylbutanamide], the concentration giving a half-maximal response (EC50) lay within 1000 to 100000 nM.
As to `CCC(C)(C)C(=O)NC1(c2ccccc2)CC1` [Compound 54, 2,2-dimethyl-N-(1-phenylcyclopropyl)butanamide], the 50% effective concentration (EC50) was in the range of 1000 to 100000 nM.
Still for that read-out and setting: then `CCC(C)(C)C(=O)N[C@@H](CC(=O)Nc1ccccc1)c1ccccc1` [Compound 106, (S)-2,2-dimethyl-N-(3-oxo-1-phenyl-3-(phenylamino)propyl)butanamide], with 1000 to 100000 nM.
Still for that read-out and setting: in the case of `CCC(C)(C)C(=O)N[C@@H](CC(=O)NCc1ccccc1)c1ccccc1` [Compound 107, (S)—N-(3-(benzylamino)-3-oxo-1-phenylpropyl)-2,2-dimethylbutanamide] it was 1000 to 100000 nM; in that of `CCN(Cc1ccccc1F)C(=O)C(C)(C)CC` [Compound 10, N-ethyl-N-(2-fluorobenzyl)-2,2-dimethylbutanamide], 1000 to 10000 nM.
As for `CCC(C)(C)C(=O)NCc1ccc(F)c(F)c1` [Compound 8, N-(3,4-difluorobenzyl)-2,2-dimethylbutanamide], the concentration giving a half-maximal response (EC50) is 1000 to 10000 nM.
Take `CCC(C)(C)C(=O)N(C)C(C)c1ccccc1` (stereo not shown) [Compound 53, N,2,2-trimethyl-N-(1-phenylethyl)butanamide]: the 50% effective concentration (EC50) fell in the range of 1000 to 100000 nM.
The same measure, in the same setting: in the case of `CCC(C)(C)C(=O)N(C)Cc1ccncc1` [Compound 34, N,2,2-trimethyl-N-(pyridin-4-ylmethyl)butanamide] it was 1000 to 100000 nM.
As for `CCC(C)(C)C(=O)N(CCC(C)=O)Cc1ccccc1F` [Compound 12, N-(2-fluorobenzyl)-2,2-dimethyl-N-(3-oxobutyl)butanamide], the concentration giving a half-maximal response (EC50) fell in the range of 1000 to 10000 nM.
The same measure, in the same setting: in the case of `CCC(C)(C)C(=O)N(Cc1cc(F)c(F)cc1F)OC` [Compound 133] it was 1000 to 100000 nM.
Turning to `CCC(C)(C)C(=O)N(C)Cc1ccc(N2CCCCC2)c([N+](=O)[O-])c1` [Compound 30, N,2,2-trimethyl-N-(3-nitro-4-(piperidin-1-yl)benzyl)butanamide], the concentration for a half-maximal effect (EC50) was 1000 to 100000 nM.
On the same count and under the same terms, then `CCN(Cc1cc(F)cc(F)c1F)C(=O)N(C)C(C)C` [Compound 115, 1-ethyl-3-isopropyl-3-methyl-1-(2,3,5-trifluorobenzyl)urea], with 1000 to 100000 nM; and `CCC(C)(CC)C(=O)NCc1cc(F)cc(F)c1F` [Compound 73, 2-ethyl-2-methyl-N-(2,3,5-trifluorobenzyl)butanamide], with 1000 to 10000 nM.
In the case of `CCC(C)(C)C(=O)N[C@@H](CC(=O)NCCc1ccccc1)c1ccccc1` [Compound 108, (S)-2,2-dimethyl-N-(3-oxo-3-(phenethylamino)-1-phenylpropyl)butanamide], the EC50 is 1000 to 100000 nM.
`CCNC(=O)C[C@H](NC(=O)C(C)(C)CC)c1ccccc1` [Compound 103, (S)—N-(3-(ethylamino)-3-oxo-1-phenylpropyl)-2,2-dimethylbutanamide]: the concentration giving a half-maximal response (EC50) lay within 1000 to 100000 nM.
For the compound `CCC(C)(C)C(=O)N[C@@H](C(=O)NCCc1ccccc1)c1ccccc1` [Compound 125, (R)-2,2-dimethyl-N-(2-oxo-2-(phenethylamino)-1-phenylethyl)butanamide], the EC50 is 1000 to 100000 nM.
With `CC(F)(F)C(C)(C)C(=O)N(O)Cc1ccc(F)cc1F` [Compound S10], the concentration giving a half-maximal response (EC50) lay within 1000 to 100000 nM.
On the same count and under the same terms, then `CCC(C)(C)C(=O)N(CCCOC)Cc1cccc(F)c1` [Compound 63, N-(3-fluorobenzyl)-N-(3-methoxypropyl)-2,2-dimethylbutanamide], with 1000 to 100000 nM.
Same read-out and setting: then `CCC(C)(C)C(=O)N(C)Cc1sccc1C` [Compound 41, N,2,2-trimethyl-N-((3-methylthiophen-2-yl)methyl)butanamide], with 1000 to 10000 nM; and `CON(Cc1cc(F)cc(F)c1F)C(=O)C(C)(C)C(C)(F)F` [Compound S20], with 1000 to 100000 nM; and `CCC(C)(C)C(=O)NC(C)c1ccccc1` (stereo not shown) [Compound 52, 2,2-dimethyl-N-(1-phenylethyl)butanamide], with 1000 to 100000 nM.
As to `CCC(C)(C)C(=O)N(Cc1cc(F)c(F)c(F)c1)OC` [Compound 134], the concentration for a half-maximal effect (EC50) lay within 1000 to 100000 nM.
`CCC(C)(C)C(=O)N[C@@H](C(=O)NCCOc1ccccc1)c1ccccc1` [Compound 127, (R)-2,2-dimethyl-N-(2-oxo-2-((2-phenoxyethyl)amino)-1-phenylethyl)butanamide]: the concentration for a half-maximal effect (EC50) lay within 1000 to 100000 nM.
The same measure, in the same setting: in the case of `CC(F)(F)C(C)(C)C(=O)N(O)Cc1ccc(F)c(F)c1` [Compound S11] it was 1000 to 100000 nM; in that of `CN(Cc1ccccc1F)C(=O)c1ccccc1` [Compound 61, N-(2-fluorobenzyl)-N-methylbenzamide], 1000 to 100000 nM.
In the case of `C=CC(C)(C)C(=O)N(O)Cc1sccc1C` [Compound 145], the EC50 is 1000 to 100000 nM.
Turning to `CCC(C)(C)C(=O)N(C)[C@@H](CO)c1cc(F)cc(F)c1F` [Compound 149], the concentration giving a half-maximal response (EC50) lay in the range of 1000 to 100000 nM.
Turning to `CCC(C)(C)C(=O)N(Cc1cccc(F)c1)CC1CC1` [Compound 64, N-(cyclopropylmethyl)-N-(3-fluorobenzyl)-2,2-dimethylbutanamide], the EC50 lay in the range of 1000 to 100000 nM.
Same read-out and setting: in the case of `CCC(C)(C)C(=O)N(C)Cc1cccc(Br)c1` [Compound 19, N-(3-bromobenzyl)-N,2,2-trimethylbutanamide] it was 1000 to 10000 nM.
Consider `C=CC(C)(C)C(=O)N(O)Cc1sc(C)cc1C` [Compound 146], for which the EC50 was 1000 to 100000 nM.
On the same count and under the same terms, in the case of `CCC(C)(C)C(=O)N(C)Cc1c(F)cc(F)cc1F` [Compound 48, N,2,2-trimethyl-N-(2,4,6-trifluorobenzyl)butanamide] it was 1000 to 10000 nM; in that of `CN(Cc1cc(F)cc(F)c1F)[S+]([O-])C(C)(C)C` (stereo not shown) [Compound 78, N,2-dimethyl-N-(2,3,5-trifluorobenzyl)propane-2-sulfinamide], 1000 to 100000 nM; in that of `CN(Cc1cc(F)c(F)c(F)c1)C(=O)C1C(C)(C)C1(C)C` [Compound 81, N,2,2,3,3-pentamethyl-N-(3,4,5-trifluorobenzyl)-cyclopropanecarboxamide], 1000 to 100000 nM.
With `CCC(C)(C)C(=O)N(C)Cc1cccc(OC(F)(F)F)c1F` [Compound 33, N-(2-fluoro-3-(trifluoromethoxy)benzyl)-N,2,2-trimethylbutanamide], the EC50 fell in the range of 1000 to 100000 nM.
For the compound `CCC(C)(C)C(=O)N(C)Cc1cccc(OC)c1` [Compound 20, N-(3-methoxybenzyl)-N,2,2-trimethylbutanamide], the EC50 was 1000 to 100000 nM.
As to `CCC(C)(C)C(=O)N(C)Cc1cccnc1OC` [Compound 37, N-((2-methoxypyridin-3-yl)methyl)-N,2,2-trimethylbutanamide], the EC50 was in the range of 1000 to 100000 nM.
Consider `CCC(C)(C)C(=O)N(C)Cc1cccc(C)c1C` [Compound 31, N-(2,3-dimethylbenzyl)-N,2,2-trimethylbutanamide], for which the concentration for a half-maximal effect (EC50) was 1000 to 100000 nM.
The same measure, in the same setting: then `CNCC(C)(C)C(=O)N(C)Cc1cc(F)c(F)c(F)c1` [Compound 68, N,2,2-trimethyl-3-(methylamino)-N-(3,4,5-trifluorobenzyl) propanamide], with 1000 to 100000 nM.
